Experimental findings from PubChem BioAssay (NCI) are described below.

Holding throughout (assay): NCI anticancer screen, dose series, 48 h
In assay [1] the test system is EKVX NSCLC.
For assay [2], the system named is SR leukemia.
Assay [3] concerns UACC-62 melanoma.
Assay [4] relates to T-47D breast.
For assay [5], the system named is SK-OV-3 ovarian.
Assay [6] relates to SK-MEL-5 melanoma.
Assay [7] has as its system HOP-62 NSCLC.
Assay [8] concerns RXF 393 renal.
Assay [9] relates to IGROV1 ovarian.
The test system of assay [10] is MDA-N.

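Growth conditions: 96-well plates. Treatment: test compound, 48 hours, 5 concentrations. Analysis: linear interpolation between bracketing concentrations; unreached endpoints set to highest concentration. TGI: total growth inhibition.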

With `c1ccc(-c2cnc(SC(c3ccccc3)c3ccccc3)[nH]2)cc1`, the TGI in [1] is 60 µM; in [2], 64.3 µM; in assay [3], 42.1 µM; in [4], 54.7 µM; in [5] it was more than 100 µM; in assay [6], 27 µM. For the same compound, the TGI was more than 100 µM in assay [7], 78.5 µM in [8], more than 100 µM in [9] and 69.6 µM in assay [10].
`CN(C(=O)[C@H](NC(=O)OCc1ccccc1)c1ccccc1)C1CCCCC1N1CCCC1` (stereo partly drawn): the TGI is more than 100 µM in [1]; 87.6 µM in assay [2]; more than 100 µM in [3]; more than 100 µM in assay [4]; more than 100 µM in assay [5]; 41.2 µM in assay [6]. In addition, the TGI in [7], in assay [8], in assay [9] and in assay [10] was more than 100 µM each time.
Take `Cn1c(N/N=C/c2ccccc2)nc(-c2ccc3c(c2)OCO3)c(C#N)c1=O`: the TGI in assay [1], in [2], in assay [3], in assay [4], in assay [5] and in assay [6] was more than 100 µM each time. The TGI in assay [7], in assay [8], in [9] and in assay [10] was more than 100 µM in each case.
In the case of `COc1ccc2[nH]c3cc4c(=O)c5cc(OC)ccc5[nH]c4cc3c(=O)c2c1`, the TGI in [1], in assay [2], in [3], in [4], in [5] and in assay [6] was more than 100 µM throughout. For the same compound, the TGI in [7], in assay [8], in [9] and in [10] was more than 100 µM throughout.
Turning to `C=C1C(=O)OC2C1CCC(=C)C1CC(O)C(=C)C12` (stereo not drawn), the TGI in assay [1] was 20.3 µM; in [2], 10.8 µM; in assay [3], 26.6 µM; in assay [4], 42.8 µM; in assay [5], more than 100 µM; in [6], 30.6 µM. In addition, the TGI in assay [7] worked out at 49.8 µM; in assay [8] it was 29.9 µM; in assay [9], 28 µM; in assay [10], 26.7 µM.
With `CCCNC1=C2C[C@@H](C)C[C@@H](OC)[C@@H](OC(=O)CCCN)[C@H](C)/C=C(\C)[C@@H](OC(N)=O)[C@H](OC)/C=C\C=C(/C)C(=O)NC(=CC1=O)C2=O`, the TGI in assay [1] is 37.5 µM; in assay [2] it was more than 23.8 µM; in [3] it was 29.4 µM; in [4], 28.5 µM; in [5], 32.4 µM; in assay [6], 24.5 µM. The TGI in [7] came out at 31.3 µM; in assay [8], 33.3 µM; in [9] it was 34.8 µM; in [10] it was 30.1 µM.
As for `C[C@@H]1C[C@H]2OC(=O)[C@@]3(C)CCC[C@@](C)([C@@H]23)[C@@]1(O)CCc1ccoc1`, the TGI in assay [1] was more than 100 µM; in assay [2], more than 88.9 µM; in assay [3], more than 100 µM; in assay [4], more than 100 µM; in [5], more than 100 µM; in [6] it was more than 100 µM. Moreover, the TGI in assay [7], in [8], in assay [9] and in assay [10] was more than 100 µM in each case.
`CCOC(=O)Oc1cc2ccsc2c2c1c1ccccc1n2C(=O)OCC`: the TGI is more than 100 µM in assay [1]; more than 100 µM in assay [2]; more than 100 µM in assay [3]; more than 100 µM in assay [4]; 84.9 µM in assay [5]; more than 100 µM in assay [6]. Moreover, the TGI was more than 100 µM in assay [7], 45.8 µM in assay [8], more than 100 µM in assay [9] and more than 100 µM in assay [10].
`N=c1c2sc3nc4ccccc4n3c2ncn1Cc1ccccc1`: the TGI in assay [1], in assay [2], in [3], in assay [4], in assay [5] and in assay [6] was more than 100 µM each time. Also, the TGI in [7], in assay [8], in assay [9] and in [10] was more than 100 µM in each case.
On to `O=C(O)c1cc2ccccc2c(Cc2c(O)c(C(=O)O)cc3ccccc23)c1O`, for which the TGI in [1], in [2], in assay [3], in assay [4], in [6] and in assay [7] was more than 100 µM throughout. Also, the TGI in [8], in assay [9] and in assay [10] was more than 100 µM in each case.
`Nc1nc(Cl)cc(NCC2(CO)CCCCC2)n1`: the TGI in assay [1], in assay [2], in assay [3], in [4], in assay [5] and in assay [6] was more than 100 µM in each case. Further, the TGI in assay [7], in assay [8], in assay [9] and in assay [10] was more than 100 µM in each case.
Take `O=c1oc2ccc([N+](=O)[O-])cc2nc1/C=C(\O)c1ccccc1`: the TGI in assay [1], in assay [2], in assay [3], in assay [4], in assay [5] and in assay [6] was more than 100 µM throughout. Further, the TGI in [7], in assay [8], in assay [9] and in assay [10] was more than 100 µM in each case.
As for `COc1ccc2c(c1)CC[C@@H]1[C@@H]2CC[C@]2(C)/C(=N/OCCN3CCCC3)CC[C@@H]12`, the TGI stood at 12.3 µM in assay [1]; 4.49 µM in assay [2]; 3.53 µM in assay [3]; 9.64 µM in assay [4]; 3.41 µM in assay [6]; 4.67 µM in assay [7]. Further, the TGI turned out to be 4.16 µM in [8], 18.4 µM in assay [9] and 3.98 µM in [10].
